Results published in patent US20240368559A1, “METHOD OF PRODUCING BRAIN MICROVASCULAR ENDOTHELIAL-LIKE CELLS AND USE THEREOF” (PUBLIC UNIVERSITY CORPORATION NAGOYA CITY UNIVERSITY, priority 2021, published 2024).

What was measured:
Type in all cases: cell-based
[1] = tested on: iBMELCs (human iPS cell-derived brain microvascular endothelial-like cells); assay: Transendothelial electrical resistance (TEER) of iBMELCs induced to differentiate from iEPCs under varied medium and coating conditions; settings: FIG. 6
From the text: iEPCs were induced to differentiate into iBMELCs under conditions where the coating agent and the additive added to the culture medium each varied. For coating the culture dish, as described above, two components of FBN and COL4, or three components obtained by adding any one component of VTN-N, LN221, LN411F, and LN511F to these two components, or four components obtained by adding LN411F and LN511F to these two components were used. As the third component, Laminin211, Laminin411, Laminin511, Agrin, Laminin-mix, Laminin-fragment mix, or hep ex was also used. […]
In order to examine the effect of cryopreserving iEPCs induced to differentiate from hiPSCs, the difference in transendothelial electrical resistance (TEER value) was compared between the presence and absence of freezing. A frozen group, in which iEPCs on day 14 of differentiation were frozen and thawed by the above-described method, and a unfrozen group of unfrozen iEPCs on day 14 of differentiation were induced to differentiate into iBMELCs by the above-described method while using the above-described differentiation-inducing condition A, and the TEER value was then measured. […] As used herein, the “maximum TEER value” means the maximum value among the TEER values measured on each day from day 2 after seeding to day 10 after seeding. […]

[2] = tested on: iBPCs (human iPS cell-derived brain pericytes); assay: Brain pericyte marker gene expression in iBPCs by RT-q PCR; settings: FIG. 20; 1 μM A 83-01 from day 8, iBPCs on day 12 of differentiation
Method: (§1) The above-described hiPSCs were used and induced to differentiate into iBPCs. Human iPS cells cultured in mTeSR plus medium were detached by using TrypLE Select, seeded on a VTN-N-coated culture dish at a density of 2×10^4 cells/cm^2, and then cultured in mTeSR plus medium containing 10 μM of Y-27632 (manufactured by Focus Biomolecules) for 24 hours. Thereafter, the cells were cultured for 1 day in modified DMEM/F12 medium (DMEM/F12 containing 0.1% chemically defined lipid concentrate, 0.1×insulin-transferrin-selenium (from Thermo Fisher Scientific), 2 mM GlutaMAX (from Sigma-Aldrich), […] 1-thioglycerol (from Sigma-Aldrich), 50 μg/mL of L-ascorbic acid phosphate magnesium salt n-hydrate, and 1×penicillin-streptomycin solution) supplemented with 5 μM CHIR-99021 (manufactured by Focus Biomolecules). Next, the cells were cultured for 1 day in modified DMEM/F12 medium containing 50 ng/mL of FGF2. […]
The expression level of each brain pericyte marker gene was analyzed by RT-q PCR. […] Relative expression levels of mRNA in X (+) and X (−) were determined while the expression level of mRNA in hPCs was set to 1 as a reference. […]

[3] = tested on: iBPCs (human iPS cell-derived brain pericytes); assay: Brain pericyte marker protein expression in iBPCs by immunostaining; settings: FIGS. 21 and 22; 1 μM A 83-01 in differentiation medium
Method: as §1, with “FGF2. Then, the cells were cultured for 2 days in EGM-2 medium (EGM-2 basal medium containing 2% FBS, 0.2 μg/mL hydrocortisone, 10 ng/mL FGF2, 20 ng/mL R3-IGF-1, 1 μg/mL ascorbic acid, 5 ng/mL hEGF, gentamicin, and amphotericin B) supplemented with 50 ng/mL PDGF-BB and 0.5 ng/mL VEGF. During this time, the medium was changed every day. On day 4, cells treated with 10 μM Y-27632 for 1 hour were dissociated using TrypLE Select, subcultured on a new VTN-N-coated culture dish at 1.25×10^4 cells/cm^2, and then induced to differentiate in an EGM-2 medium containing 50 ng/mL PDGF-BB. During this time, the medium was changed every day. On day 8 of differentiation, the cells were induced to differentiate in an EGM-2 medium containing 50 ng/mL PDGF-BB, and 1 μM A 83-01. During this time, the medium was changed every day.” for “FGF2.”
iBPCs (X(+) and X(−)) induced to differentiate from hiPSCs by the above method were analyzed by immunostaining in order to check the properties as BPCs. […] After that, the cells were washed three times with D-PBS (−), and then analyzed with an Operetta High-Content Imaging System (manufactured by PerkinElmer). […]

[4] = tested on: iBPCs (human iPS cell-derived brain pericytes); assay: Cell scratch test of cell migration ability and proliferation potential of iBPCs; settings: FIGS. 23 and 24
Method: as §1
Samples used were iBPCs (X (+)) induced to differentiate by adding A 83-01 in the above method and iBPCs (X (−)) induced to differentiate without adding A 83-01 in the above method. […] How the cells migrated 0, 12, and 24 hours of culture after cell scratching was checked by bright field observation, and the scratched area was calculated by Image J.

## Cc1cccc(-c2nn(C(=S)Nc3ccccc3)cc2-c2ccnc3ccccc23)n1 [A 83-01]
[1]; 1 μM vs 10 μM
  maximum TEER value (barrier function of iBMELCs) at content of 1 μM: high barrier function equivalent to the case of the content of 10 μM
[1]; 0.1, 1 or 10 μM in HE-SFM with 20 ng/mL FGF2 and 7.5% B27s, FBN+COL4 coating
  maximum TEER value (barrier function of iBMELCs), added vs not added: the barrier function of iBMELCs was higher than that when A 83-01 was not added
[2]
  relative mRNA expression level of α-SMA (human primary pericytes = 1): suppress the gene expression of α-SMA to the same extent as that of human primary pericytes
[3]
  expression of NG2 (relative average fluorescence intensity, X (−) = 1): did not significantly affect
  expression of PDGFR-β (relative average fluorescence intensity, X (−) = 1): did not significantly affect
  protein expression of α-SMA (relative average fluorescence intensity, X (−) = 1): suppress the protein expression of α-SMA
[4]; X (+) vs X (−)
  cell migration ability and proliferation potential of iBPCs: enhance the cell migration ability and proliferation potential of iBPCs
[4]; iBPCs (X (+)), 24 hours after cell scratching, number of samples 1
  relative distance of the cell scratch portion (0 hour = 1): 0
